The values that follow come from patent US20190292189A1, “LIM KINASE INHIBITORS” (VIRONGY, LLC, priority 2016, published 2019).

The nature of data set [1]: Plasma pharmacokinetics studies on rats. The conditions noted are these: rats; for AUC (iv) / Cl (iv) / T1/2 (iv) / Yd (iv) / Cmax: iv dosing 1 mg/kg; for F (%) (po): po dosing 2 mg/kg; for Cmax: read-out: Cmax (iv). The procedure:
In vivo pharmacokinetics (PK) studies were conducted for selected compounds during the whole optimization at various stages in order to identify structural elements that are favorable for in vivo applications, and/or to evaluate the feasibility of optimized Limk inhibitors for animal studies.

The target of another data set is ROCK-II (Homo sapiens, UniProt O75116). Put plainly: ROCK-II biochemical counter-screen. A general note: The purpose of a counterscreen is to sort out artefacts and off-target activity.
Sequence of ROCK-II (O75116 whole entry, species assumed): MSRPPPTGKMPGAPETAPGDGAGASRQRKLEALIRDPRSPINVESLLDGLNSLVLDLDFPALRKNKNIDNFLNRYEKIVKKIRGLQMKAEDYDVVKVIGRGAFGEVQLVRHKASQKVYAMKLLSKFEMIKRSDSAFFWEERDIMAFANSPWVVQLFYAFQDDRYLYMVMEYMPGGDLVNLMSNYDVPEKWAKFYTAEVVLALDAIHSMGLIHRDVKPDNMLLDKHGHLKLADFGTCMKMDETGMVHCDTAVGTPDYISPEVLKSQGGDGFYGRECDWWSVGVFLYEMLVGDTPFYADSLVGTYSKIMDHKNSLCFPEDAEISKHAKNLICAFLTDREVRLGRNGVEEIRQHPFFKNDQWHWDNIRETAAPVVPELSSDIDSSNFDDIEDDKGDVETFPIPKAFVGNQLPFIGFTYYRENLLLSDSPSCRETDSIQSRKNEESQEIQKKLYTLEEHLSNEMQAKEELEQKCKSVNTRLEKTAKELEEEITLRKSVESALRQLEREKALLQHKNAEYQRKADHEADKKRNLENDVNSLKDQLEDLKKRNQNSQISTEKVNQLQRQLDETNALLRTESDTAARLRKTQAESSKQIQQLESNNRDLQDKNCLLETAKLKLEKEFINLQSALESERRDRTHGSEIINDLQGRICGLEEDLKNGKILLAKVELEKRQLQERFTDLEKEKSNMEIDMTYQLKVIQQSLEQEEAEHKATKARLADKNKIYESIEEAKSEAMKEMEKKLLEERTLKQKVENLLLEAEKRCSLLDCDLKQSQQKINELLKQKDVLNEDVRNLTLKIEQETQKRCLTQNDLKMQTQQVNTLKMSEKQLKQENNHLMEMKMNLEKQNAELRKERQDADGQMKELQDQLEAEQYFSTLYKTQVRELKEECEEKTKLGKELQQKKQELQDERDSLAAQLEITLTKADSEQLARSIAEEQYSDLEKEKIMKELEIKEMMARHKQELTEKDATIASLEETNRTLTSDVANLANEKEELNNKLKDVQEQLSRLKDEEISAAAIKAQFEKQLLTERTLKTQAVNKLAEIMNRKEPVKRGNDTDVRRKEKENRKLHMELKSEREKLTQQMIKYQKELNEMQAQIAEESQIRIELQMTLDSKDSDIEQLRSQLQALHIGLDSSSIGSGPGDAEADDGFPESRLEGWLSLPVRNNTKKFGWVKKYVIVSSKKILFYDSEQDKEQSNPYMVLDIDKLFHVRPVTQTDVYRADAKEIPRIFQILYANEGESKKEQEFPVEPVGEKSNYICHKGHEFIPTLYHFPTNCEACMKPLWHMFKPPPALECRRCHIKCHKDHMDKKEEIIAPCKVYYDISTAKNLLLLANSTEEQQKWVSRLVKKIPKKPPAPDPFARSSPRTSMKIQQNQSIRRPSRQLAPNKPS
Another data set addresses Limk1 (Homo sapiens, UniProt P53667). Put plainly: Limk1 biochemical assay (Reaction Biology, 10-dose IC50). As to conditions: for Limk1 inhibition: compared with 14a, values only in FIG. 4. On the set-up: His; purchased Reaction Biology Corporation; host or cells: insect cells.
The mark [2] stands for this setting: Table 4, means of ≥2 experiments, read-out: IC50 (nM) ROCK-II.
Setting [3] is: Table 1, means of ≥2 experiments, read-out: IC50 (nM) Limk1.
Setting [4] is: Table 1, means of ≥2 experiments, read-out: IC50 (nM) ROCK-II.
The mark [5] stands for this setting: Table 3, means of ≥2 experiments, read-out: IC50 (nM) Limk1.
Where [6] appears, read: Table 3, means of ≥2 experiments, read-out: IC50 (nM) ROCK-II.
Where [7] appears, read: Table 4, means of ≥2 experiments, read-out: IC50 (nM) Limk1.

Molecules are shown by their SMILES. Like-named read-outs stand apart in the source and are kept apart here.

Sequence of Limk1 (P53667 285-638): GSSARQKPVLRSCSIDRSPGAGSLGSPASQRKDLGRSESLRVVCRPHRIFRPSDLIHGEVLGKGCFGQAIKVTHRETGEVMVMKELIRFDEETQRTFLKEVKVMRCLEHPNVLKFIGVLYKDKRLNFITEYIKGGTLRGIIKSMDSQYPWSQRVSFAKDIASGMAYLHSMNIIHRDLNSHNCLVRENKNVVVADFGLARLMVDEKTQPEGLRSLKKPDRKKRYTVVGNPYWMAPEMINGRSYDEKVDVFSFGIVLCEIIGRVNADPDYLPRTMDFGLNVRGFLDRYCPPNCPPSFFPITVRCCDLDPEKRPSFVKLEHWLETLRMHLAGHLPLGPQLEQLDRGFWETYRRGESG

One may read the Cmax as the maximum level reached in the sampled fluid or tissue. Turning to `Cc1c[nH]c2ncnc(-c3ccc(NC(=O)Nc4cccc(C(=O)NC(C)C)c4)cc3)c12` [Compound 7g, N-Isopropyl-3-(3-(4-(5-methyl-7H-pyrrolo[2,3-d]pyrimidin-4-yl)phenyl)ureido)benzamide], in data set [1], the “AUC (iv)” value stood at 4.3 µM·h, the “Cl (iv)” value was 9.0 mL/min/kg, the “T1/2 (iv)” value was 1.0 h and the “Yd (iv)” value turned out to be 0.3 L/kg. In data set [1], the “F (%) (po)” value turned out to be 0% and the Cmax is 8.5 µM.
For orientation: IC50 means the concentration that inhibits the measured activity by half. On to `Cc1c[nH]c2ncnc(-c3ccc(NC(=O)N(CCO)c4cccc(F)c4)cc3)c12` [Compound 18d, 1-(3-Fluorophenyl)-1-(2-hydroxyethyl)-3-(4-(5-methyl-7H-pyrrolo[2,3-d]pyrimidin-4-yl)phenyl)urea], for which the IC50 on ROCK-II (setting [2]) was found to be 1900 nM.
`COc1ccc(N(CCN(C)C)C(=O)Nc2ccc(-c3ncnc4[nH]cc(C)c34)cc2)cc1` [Compound 18q, 1-(2-(Dimethylamino)ethyl)-1-(4-methoxyphenyl)-3-(4-(5-methyl-7H-pyrrolo[2,3-d]pyrimidin-4-yl)phenyl)urea]: the concentration for half-maximal inhibition (IC50) on ROCK-II (setting [2]) and at ROCK-II (read-out: ROCK-II IC50) was more than 10000 nM in each case.
As for `CC(C)NC(=O)c1cccc(NC(=O)Nc2ccc(-c3cn[nH]c3)cc2)c1` [Compound 7a, 3-(3-(4-(1H-pyrazol-4-yl)phenyl)ureido)-N-isopropylbenzamide], the IC50 was more than 10000 nM at Limk1 (setting [3]) and 45 nM at ROCK-II (setting [4]).
As to `CC(C)NC(=O)c1cccc(NC(=O)Nc2ccc(-c3ncnc4[nH]ccc34)cc2)c1` [Compound 3, 3-(3-(4-(7H-pyrrolo[2,3-d]pyrimidin-4-yl)phenyl)ureido)-N-isopropylbenzamide], the IC50 came to 201 nM at Limk1 (read-out: Limk1 IC50) and 1360 nM on ROCK-II (setting [4]).
With `Cc1c[nH]c2ncnc(-c3ccc(NC(=O)Nc4cccc(C(=O)NC(C)C)c4)c(OCCN(C)C)c3)c12` [Compound 7l, 3-(3-(2-(2-(Dimethylamino)ethoxy)-4-(5-methyl-7H-pyrrolo[2,3-d]pyrimidin-4-yl)phenyl)ureido)-N-isopropylbenzamide], the IC50 came to 710 nM on Limk1 (Table 2, means of ≥2 experiments, read-out: IC50 (nM) Limk1) and 7080 nM on ROCK-II (Table 2, means of ≥2 experiments, read-out: IC50 (nM) ROCK-II).
In the case of `Cc1cc2c(-c3ccc(NC(=O)Nc4cccc(C(=O)NC(C)C)c4)cc3)ncnc2[nH]1` [Compound 7h, N-Isopropyl-3-(3-(4-(6-methyl-7H-pyrrolo[2,3-d]pyrimidin-4-yl)phenyl)ureido)benzamide], the IC50 was 80 nM at Limk1 (setting [3]) and more than 10000 nM on ROCK-II (setting [4]).
For the molecule `COc1ccc(NC(=O)N(CCN2CCCC2)c2ccc(-c3ncnc4[nH]cc(C)c34)cc2)cc1` [Compound 14b, 3-(4-Methoxyphenyl)-1-(4-(5-methyl-7H-pyrrolo[2,3-d]pyrimidin-4-yl)phenyl)-1-(2-(pyrrolidin-1-yl)ethyl)urea], the “Limk1 inhibition” value on Limk1 is listed as “even lower Limk1 inhibitions”.
`Cc1c[nH]c2ncnc(-c3ccc(NC(=O)Nc4nccs4)cc3)c12` [Compound 10f, 1-[4-(5-Methyl-7H-pyrrolo[2,3-d]pyrimidin-4-yl)-phenyl]-3-thiazol-2-yl-urea]: the IC50 turned out to be 203 nM at Limk1 (setting [5]) and 2290 nM at ROCK-II (setting [6]).
Regarding `CC(C)NC(=O)c1cccc(NC(=O)Nc2ccc(-c3ccnc(N)n3)cc2)c1` [Compound 7c, 3-(3-(4-(2-Aminopyrimidin-4-yl)phenyl)ureido)-N-isopropylbenzamide], the values for the IC50 on Limk1 (setting [3]) and at ROCK-II (setting [4]) were more than 10000 nM and 166 nM, respectively.
With `Cc1c[nH]c2ncnc(-c3ccc(NC(=O)N(CCO)c4ccccc4F)cc3)c12` [Compound 18c, 1-(2-Fluorophenyl)-1-(2-hydroxyethyl)-3-(4-(5-methyl-7H-pyrrolo[2,3-d]pyrimidin-4-yl)phenyl)urea], the 50% inhibitory concentration (IC50) on ROCK-II (setting [2]) stood at 1600 nM.
On to `Cc1c[nH]c2ncnc(-c3ccc(NC(=O)Nc4ccccc4)cc3)c12` [Compound 10a, 1-(4-(5-Methyl-7H-pyrrolo[2,3-d]pyrimidin-4-yl)phenyl)-3-phenylurea], for which the 50% inhibitory concentration (IC50) on Limk1 (read-out: Limk1 IC50) stood at 142 nM. Moreover, in data set [1], the “AUC (iv)” value amounted to 14.3 µM·h, the “Cl (iv)” value is reported as 3.4 mL/min/kg, the “T1/2 (iv)” value was determined as 1.6 h and the “Yd (iv)” value worked out at 0.5 L/kg. Besides, in data set [1], the “F (%) (po)” value is on record as 16% and the Cmax came to 7 µM. In addition, the 50% inhibitory concentration (IC50) at ROCK-II (read-out: ROCK-II IC50) was found to be 2360 nM.
Take `COc1cccc(NC(=O)Nc2ccc(-c3ncnc4[nH]cc(C)c34)cc2)c1` [Compound 10d, 1-(3-Methoxyphenyl)-3-(4-(5-methyl-7H-pyrrolo[2,3-d]pyrimidin-4-yl)phenyl)urea]: the concentration for half-maximal inhibition (IC50) on Limk1 (setting [5]) is 75 nM; on ROCK-II (setting [6]), 2570 nM.
For the molecule `Cc1c[nH]c2ncnc(-c3ccc(NC(=O)Nc4cccc(C(=O)NC(C)C)c4)c(C(F)(F)F)c3)c12` [Compound 7j, N-Isopropyl-3-(3-(4-(5-methyl-7H-pyrrolo[2,3-d]pyrimidin-4-yl)-2-(trifluoromethyl)phenyl)ureido)-benzamide], the half-inhibitory concentration (IC50) is 60 nM at Limk1 (read-out: Limk1 IC50) and 976 nM on ROCK-II (read-out: ROCK-II IC50).
Turning to `Cc1cccc(N(CCO)C(=O)Nc2ccc(-c3ncnc4[nH]cc(C)c34)cc2)c1` [Compound 18j, 1-(2-Hydroxyethyl)-3-(4-(5-methyl-7H-pyrrolo[2,3-d]pyrimidin-4-yl)phenyl)-1-m-tolylurea], the figures for the 50% inhibitory concentration (IC50) on Limk1 (setting [7]) and at ROCK-II (setting [2]) were 151 nM and 8940 nM, respectively.
As for `Cc1ccccc1N(CCO)C(=O)Nc1ccc(-c2ncnc3[nH]cc(C)c23)cc1` [Compound 18i, 1-(2-Hydroxyethyl)-3-(4-(5-methyl-7H-pyrrolo[2,3-d]pyrimidin-4-yl)phenyl)-1-o-tolylurea], the IC50 at ROCK-II (setting [2]) was more than 10000 nM.
As to `COc1ccc(NC(=O)N(C)c2ccc(-c3ncnc4[nH]cc(C)c34)cc2)cc1` [Compound 14a, 3-(4-Methoxyphenyl)-1-methyl-1-(4-(5-methyl-7H-pyrrolo[2,3-d]pyrimidin-4-yl)phenyl)urea], the IC50 on Limk1 (read-out: Limk1 IC50) is 1090 nM.
As to `COc1ccc(NC(=O)N(CCN2CCCCC2)c2ccc(-c3ncnc4[nH]cc(C)c34)cc2)cc1` [Compound 14c, 3-(4-Methoxyphenyl)-1-(4-(5-methyl-7H-pyrrolo[2,3-d]pyrimidin-4-yl)phenyl)-1-(2-(piperidin-1-yl)ethyl)urea], the “Limk1 inhibition” value on Limk1 is listed as “even lower Limk1 inhibitions”.
As to `CC(C)NC(=O)c1cccc(NC(=O)Nc2ccc(-c3ccncc3)cc2)c1` [Compound 7b, N-Isopropyl-3-(3-(4-(pyridin-4-yl)phenyl)ureido)benzamide], the IC50 on Limk1 (setting [3]) is more than 10000 nM; at ROCK-II (setting [4]), 90 nM.
For `COc1ccccc1NC(=O)Nc1ccc(-c2ncnc3[nH]cc(C)c23)cc1` [Compound 10c, 1-(2-Methoxyphenyl)-3-(4-(5-methyl-7H-pyrrolo[2,3-d]pyrimidin-4-yl)phenyl)urea], the IC50 at Limk1 (read-out: Limk1 IC50) worked out at 283 nM; on ROCK-II (setting [6]), 6650 nM.
As for `COc1ccc(N(CCN)C(=O)Nc2ccc(-c3ncnc4[nH]cc(C)c34)cc2)cc1` [Compound 18o, 1-(2-Aminoethyl)-1-(4-methoxyphenyl)-3-(4-(5-methyl-7H-pyrrolo[2,3-d]pyrimidin-4-yl)phenyl)urea], on Limk1 (setting [7]), the IC50 was 27 nM. In data set [1], the “AUC (iv)” value amounted to 1.1 µM·h, the “Cl (iv)” value is recorded as 36.0 mL/min/kg, the “T1/2 (iv)” value is 4.6 h and the “Yd (iv)” value is 6.0 L/kg. Besides, in data set [1], the “F (%) (po)” value was found to be 0% and the peak concentration (Cmax) worked out at 2.2 µM.
On to `COc1ccc(NC(=O)Nc2ccc(-c3ncnc4[nH]cc(C)c34)cc2)cc1` [Compound 10e, 1-(4-Methoxyphenyl)-3-(4-(5-methyl-7H-pyrrolo[2,3-d]pyrimidin-4-yl)phenyl)urea], for which the 50% inhibitory concentration (IC50) at ROCK-II (setting [6]) and at ROCK-II (read-out: ROCK-II IC50) was more than 10000 nM each time.
Consider `Cc1c[nH]c2ncnc(-c3ccc(NC(=O)Nc4cccc(F)c4)cc3)c12` [Compound 10b, 1-(3-Fluorophenyl)-3-(4-(5-methyl-7H-pyrrolo[2,3-d]pyrimidin-4-yl)phenyl)urea], for which the 50% inhibitory concentration (IC50) at Limk1 (read-out: Limk1 IC50) is 315 nM; on ROCK-II (setting [6]), 5420 nM.
Take `Cc1c[nH]c2ncnc(-c3ccc(NC(=O)Nc4ccccn4)cc3)c12` [Compound 10g, 1-[4-(5-Methyl-7H-pyrrolo[2,3-d]pyrimidin-4-yl)-phenyl]-3-pyridin-2-yl-urea]: the IC50 on Limk1 (setting [5]) is 4510 nM; at ROCK-II (setting [6]), more than 10000 nM.
